Read-outs that look alike come from different tables or passages of the source. No end group written: not given here.
What was measured:
CD8+ T cells = system: CD8+ T cells; parameters: species or system transgenic HLA-A24 mice; details: mouse, in vivo
[1] = system: memory CD8^+ T cells within PBMCs; format: cell-based, human
human lung CD8^+ T cells = test: Ex vivo tetramer detection in human lung samples from deceased organ donors; format: cell-based; details: n=3 lung donors
Text: As human memory CD8^+ T cells also reside outside the circulation, a rare set of human lung samples from deceased organ donors (n=3) were used to assess the presence of universal A2/PB1413^+CD8^+ T cells at the site of infection. CD8^+ T cells specific for A2/M158 and A2/PB1413, but not A2/BHA543 were detected within human lung CD8^+ T cells (2/3 donors for either specificity, FIG. 3f). […] Although based on a limited number of donors, this analysis indicates the presence of universal A2/PB1413^+ tissue-resident memory CD8^+ T cell pools in the human lung.

CD8^+ T cells [2] = system: CD8^+ T cells
HLA-A*02:01 [3] = target: T1, HLA-A*02:01 (Homo sapiens, UniProt P04439, D140Y/D185E/D98H/E176V/E277Q/G131W/G231S/I119V/I121R/I166T/I218V/L300P/L318F/N151K/N90K/P208A/P217A/Q86G/Q94H/R138H/R169H/T345S); details: reference 34; cited from earlier work
tetramer^+ CD8^+ T cells [4] = test: Tetramer staining of IAV- or IBV-specific CD8^+ T cell lines established in vitro from healthy adult PBMC; format: cell-based, human; details: for tetramer^+ of CD8^+ T cells, median: n=11
Text: Conversely, the universal A2/PB1413 epitope within the IBV-specific T cell lines was immunodominant (0.3%; detected in 8/11 donors) over the IBV-specific A2/BHA543 (0.11%; detected in 10/11 donors) and A2/BNS1266 epitopes (0.01%) (FIG. 4c).

tetramer^+ CD8^+ T cells [5] = format: cell-based, human
CD8^+ T cells [6] = system: CD8^+ T cells; parameters: species or system HHD-A2 mice; details: mouse, in vivo
HLA-A*02:01 [7] = target: T1, HLA-A*02:01; test: Thermal stability of pHLA-A*02:01 complex (Tm); format: binding
tetramer^+CD8^+ T cells = format: cell-based, human
CD8^+ T cells [8] = test: Recall responses in HHD-A2 mice primed with B/Malaysia and challenged with B/Phuket; format: in vivo; details: for number of secondary IFNγ^+TNF^+ CD8^+ T cells in the spleen versus primary infection: spleen d8 after B/Phuket challenge, not statistically significant
Text: To further verify the immunogenicity of these epitopes in recall responses, HHD-A2 mice were primed i.n. with B/Malaysia, infected with the heterologous strain B/Phuket 6 weeks later and then assessed CD8^+ T cells against the main epitopes A2/BHA543-551 and A2/BNS1266-274 in the spleen on d8 after challenge.

CD8^+ T cells [9] = format: cell-based, human
CD8^+ T cells [10] = test: In vitro screening and validation in HLA-A*02:01-expressing human PBMCs, CD8^+ T cell lines, IFNγ/TNF ICS; format: cell-based; details: for ICS responses in healthy A2:01+ donors: 10 days culture with 10 μM peptide and IL-2, re-stimulation 1 μM; for CD8^+ T cell response hierarchy of individual peptides: HLA-A*0201^+ donors, dissection of pools into individual peptides; for CD8^+ T cell response, median / donors with response: T cell lines towards individual peptides, n=6
Text: As a next step, the IBV-specific CD8^+ T cell responses towards the 67 LC/MS-identified IBV-peptides in HLA-A*02:01-expressing individuals were dissected. CD8^+ T cell lines specific for each of the 6 peptide pools were established, and then re-stimulated cells with the cognate pool in an IFNγ/TNF ICS assay (FIG. 2f).
To validate these responses independently of the peptide pools, CD8^+ T cell lines were established towards individual immunogenic peptides (FIG. 2i). […] Thus, these thorough in vivo and in vitro analyses identified 5 novel peptides recognized by CD8^+ T cells in complex with the HLA-A*02:01 molecule, with BHA543-551 being immunodominant amongst the peptides tested, in both mice and humans.
Peripheral blood mononuclear cells (PBMC) from healthy A2:01+ donors were cultured in the presence of antigens (10 μM peptide) for 10 days in the presence of IL-2 (10 U/ml). On day 10 PBMCs were stimulated with peptides (1 μM) for 5 hours in the presence of BFA. Cells were surface stained for CD3 and CD8 and intracellularly stained for IFNγ and TNF using the BD cytofix/cytoperm kit according to the manufacturer's instructions (BD Biosciences).
Any pools with positive ICS responses were then dissected to their individual peptides.

CD8^+ T cells [11] = format: cell-based, human; remark: listed apart in the source
CD8+ T Lymphocytes = format: cell-based, human
CD8^+ T cells [12] = system: CD8^+ T cells; parameters: species or system A24 mice; details: mouse
[13] = IAV-specific CD8^+ T cell lines

AAYEDLRVL (Influenza B virus) [NP392-400]
immunogenicity (induction of IFNγ production in CD8+ T cells after peptide re-stimulation) (CD8+ T cells): immunogenic

FEDLRVLSA (Influenza A virus) [NP338-345]
memory CD8^+ T cell responses (IFN-γ production after peptide re-stimulation) [1]: robust memory CD8^+ T cell responses

GILGFVFVL [M158-66, GILGFVFVL, reference compound]
epitope-specific CD8^+ T cells detected within human lung CD8^+ T cells (human lung CD8^+ T cells): 2/3
EC50 (CD8^+ T cells [2]): 8.1 nM
Tm (temperature required to unfold 50% of the protein) of pHLA-A*02:01 complex (HLA-A*02:01 [3]): 65 °C
donors with detected tetramer^+ cells (tetramer^+ CD8^+ T cells [4]; [13]): 11 donors
tetramer^+ of CD8^+ T cells, median (tetramer^+ CD8^+ T cells [4]; [13]): 3.9%
CD38^+/Ki-67^+ expression of tetramer-positive CD8^+ T cells (tetramer^+ CD8^+ T cells [5]): increase
increase in frequency of epitope-specific CD8^+ T cells in blood versus healthy donors (tetramer^+ CD8^+ T cells [5]): 4.3 fold
individuals with detected epitope-specific CD8^+ T cells (tetramer^+ CD8^+ T cells [5]): 100%

GLDNHTILL [HA543-551, GLDNHTILL]
CD8+ T cell responses (IFNγ and TNF production) (CD8^+ T cells [6]): CD8+ T cell responses were targeted
CD8^+ T cell response, mean (CD8^+ T cells [6]): 5 % of CD8^+ T cells
CD8^+ T cell responses at the site of infection (CD8^+ T cells [6]): targeted
Tm (temperature required to unfold 50% of the protein) of pHLA-A*02:01 complex (HLA-A*02:01 [7]): ~72 °C
d14 frequency lower than universal A2/PB1413^+CD8^+ T cells (tetramer^+CD8^+ T cells): 5 fold
polyfunctional IFNγ^+TNF^+IL-2^+ CD8^+ T cells (CD8^+ T cells [8]; primary infection): 0.14 % of CD8^+ T cells
polyfunctional IFNγ^+TNF^+IL-2^+ CD8^+ T cells (CD8^+ T cells [8]; secondary infection, p=0.013): 2.14 % of CD8^+ T cells
number of secondary IFNγ^+TNF^+ CD8^+ T cells in the spleen versus primary infection (CD8^+ T cells [8]): ~27 fold
polyfunctionality (CD8^+ T cells [9]): inferior
epitope-specific CD8^+ T cells detected within human lung CD8^+ T cells (human lung CD8^+ T cells): not
EC50 (CD8^+ T cells [2]): 0.78 nM
donors with detected tetramer^+ cells (tetramer^+ CD8^+ T cells [4]; IBV-specific T cell lines): 10/11
tetramer^+ of CD8^+ T cells, median (tetramer^+ CD8^+ T cells [4]; IBV-specific T cell lines): 0.11%
ICS responses in healthy A2:01+ donors (CD8^+ T cells [10]): detected across multiple donors
CD8^+ T cell response hierarchy of individual peptides (CD8^+ T cells [10]): immunodominant epitope
CD8^+ T cell response, median (CD8^+ T cells [10]): 7.35 % of CD8^+ T cells
donors with response (CD8^+ T cells [10]): 6/6
additional low avidity CD8^+ T cells detected by Q115E staining (CD8^+ T cells [11]): could be detected
CD38^+/Ki-67^+ expression of tetramer-positive CD8^+ T cells (tetramer^+ CD8^+ T cells [5]): increase
increase in numbers of epitope-specific CD8^+ T cells versus healthy donors (tetramer^+ CD8^+ T cells [5]): 2.2 fold
individuals with detected epitope-specific CD8^+ T cells (tetramer^+ CD8^+ T cells [5]): 75%

IYFSPIRVTF (Influenza B virus) [NP164-173]
immunogenicity (induction of IFNγ production in CD8+ T cells after peptide re-stimulation) (CD8+ T cells): immunogenic

IYHPGGNKL (Influenza B virus) [PB2245-253]
immunogenicity (induction of IFNγ production in CD8+ T cells after peptide re-stimulation) (CD8+ T cells): immunogenic

KYVLFHTSL (Influenza B virus) [PA457-465]
CD8+ T cell responses (IFNγ) after single peptide re-stimulation (CD8+ T Lymphocytes): immunogenic response

LYSDILLKF (Influenza B virus) [NA32-40]
immunogenicity (induction of IFNγ production in CD8+ T cells after peptide re-stimulation) (CD8+ T cells): immunogenic

NFAMELPSF (Influenza B virus) [PB1503-511]
CD8+ T cell responses (IFNγ) after single peptide re-stimulation (CD8+ T Lymphocytes): immunogenic response

RYGFVANF (Influenza A virus) [PB1498-505]
in vivo CD8^+ T cell responses (CD8^+ T cells [12]): targeted

SFSFGGFTF (Influenza A virus) [PB2322-330]
in vivo CD8^+ T cell responses (CD8^+ T cells [12]): targeted

SLNDDGLDNHTILL (Influenza B virus) [HA538-551]
CD8+ T cell responses (IFNγ and TNF production) (CD8^+ T cells [6]): detected
CD8^+ T cell response hierarchy of individual peptides (CD8^+ T cells [10]): Subdominant responses

SQFGQEHRL (Influenza B virus) [NS1266-274]
CD8+ T cell responses (IFNγ and TNF production) (CD8^+ T cells [6]): CD8+ T cell responses were targeted
CD8^+ T cell response, mean (CD8^+ T cells [6]): 1.8 % of CD8^+ T cells
CD8^+ T cell responses at the site of infection (CD8^+ T cells [6]): targeted
number of secondary IFNγ^+TNF^+ CD8^+ T cells in the spleen versus primary infection (CD8^+ T cells [8]): ~27 fold
tetramer^+ of CD8^+ T cells, median (tetramer^+ CD8^+ T cells [4]; IBV-specific T cell lines): 0.01%
ICS responses in healthy A2:01+ donors (CD8^+ T cells [10]): detected across multiple donors
CD8^+ T cell response hierarchy of individual peptides (CD8^+ T cells [10]): Subdominant responses
CD8^+ T cell response, median (CD8^+ T cells [10]): 0.035 % of CD8^+ T cells
donors with response (CD8^+ T cells [10]): single donor

SYINRTGTFEF (Influenza A virus) [PB1482-492]
in vivo CD8^+ T cell responses (CD8^+ T cells [12]): targeted

SYLIRALTL (Influenza A virus) [PB1216-224]
in vivo CD8^+ T cell responses (CD8^+ T cells [12]): targeted

TYHSYANNI (Influenza B virus) [NA213-221]
immunogenicity (induction of IFNγ production in CD8+ T cells after peptide re-stimulation) (CD8+ T cells): immunogenic

TYQWIIRNW (Influenza A virus) [PB2549-557]
in vivo CD8^+ T cell responses (CD8^+ T cells [12]): targeted

TYQWVLKNL (Influenza B virus) [PB2550-558]
immunogenicity (induction of IFNγ production in CD8+ T cells after peptide re-stimulation) (CD8+ T cells): immunogenic

VLSQFGQEHRL (Influenza B virus) [NS1264-274]
CD8+ T cell responses (IFNγ and TNF production) (CD8^+ T cells [6]): detected
CD8^+ T cell responses at the site of infection (CD8^+ T cells [6]): targeted
CD8^+ T cell response hierarchy of individual peptides (CD8^+ T cells [10]): Subdominant responses
CD8^+ T cell response, median (CD8^+ T cells [10]): 0.025 % of CD8^+ T cells
donors with response (CD8^+ T cells [10]): single donor

VSDGGPNLY (Influenza A virus) [PB1591-599]
memory CD8^+ T cell responses (IFN-γ production after peptide re-stimulation) [1]: robust memory CD8^+ T cell responses

YFSPIRVTF (Influenza B virus) [NP165-173]
immunogenicity (induction of IFNγ production in CD8+ T cells after peptide re-stimulation) (CD8+ T cells): immunogenic

YLNPGNYSM (Influenza B virus) [M1132-140]
CD8^+ T cell response hierarchy of individual peptides (CD8^+ T cells [10]): Subdominant responses
donors with response (CD8^+ T cells [10]): single donor

YYSTAASSL (Influenza B virus) [HA552-560]
CD8+ T cell responses (IFNγ) after single peptide re-stimulation (CD8+ T Lymphocytes): immunogenic response
